The values that follow come from patent publication US8133686B2 (Van Andel Research Institute, priority 2008, dated 2012).

Each structure is given as a SMILES string. Read-outs that look alike come from different tables or passages of the source.

One assay deals with RCC cell lines. Description: cells. Particulars: Homo sapiens.
The test system of another assay is A-498 xenografts. The assay can be described thus: A-498 xenograft model, intermittent sunitinib dosing (3 weeks on, 3 weeks off).
For another assay, the system named is HUVEC and HLMVEC cells. The assay can be described thus: cells. The note with it: Homo sapiens.
The test system of another assay is SN12C xenografts. Description: SN12C xenograft model, intermittent sunitinib dosing (3 weeks on, 3 weeks off).
The mark [1] stands for this setting: 40 mg/kg, 3-weeks-on and 3-weeks-off.
[2] abbreviates: preliminary studies (data not shown).

With `CCN(CC)CCNC(=O)c1c(C)[nH]c(/C=C2\C(=O)Nc3ccc(F)cc32)c1C` [SU11248, sunitinib], the IC50 in the assay on RCC cell lines (read-out: IC50 on proliferation of RCC cell lines, similar under both conditions: normal culture/complete medium and ligand-dependent/PDGF-only) is 4 to 10 µM; in the assay with RCC cell lines (read-out: IC50 on proliferation of RCC cells, complete medium), 4 to 10 µM; with RCC cell lines (read-out: IC50 on proliferation of RCC cells, ligand-dependent condition), 2 to 6 µM; in the assay with HUVEC and HLMVEC cells (read-out: IC50 on proliferation of endothelial cell lines), about 0.01 µM; in the assay on HUVEC and HLMVEC cells (read-out: IC50 on proliferation of endothelial cells), about 6 µM. Besides, in the assay on A-498 xenografts (setting [1]), the “treated A-498 xenograft mice showing phenotypic resistance” value came to 38%. Also, in the assay with A-498 xenografts (setting [1]), the “treated A-498 xenograft mice showing phenotypic resistance (resistant/treated)” value is on record as 13/34. Also, the “minimal required dosage to induce stable disease” value in the assay on A-498 xenografts (setting [2]) is 40 mg/kg; in the assay with SN12C xenografts (setting [2]) it was 80 mg/kg. In the assay on SN12C xenografts (80 mg/kg, 3-weeks-on and 3-weeks-off), the “treated SN12C xenograft mice showing phenotypic resistance” value came out at 33%.
